Patent US20180370922A1, “ANTI-INFLAMMATORY 6-PHENOXYPYRIMIDINE DERIVATIVES, PROCESS FOR THEIR PREPARATION AND PHARMACEUTICAL COMPOSITION CONTAINING THEM” (priority 2017, published 2018)

Key:
[1] = tested on: LPS-induced PEG2 production; assay: Measurement of PEG2 production; assay type: cell-based; conditions: FIG. 3
TNF-α = assay: Cytokine production inhibiting activity, TNF-α; assay type: cell-based; conditions: at a concentration of 12 μM, FIG. 6
Method: (§1) The inhibitory activity for the proinflammatory cytokines TNF-α, IL-1β and IL-6 was tested for the compound of the present invention.

IL-6 = assay: Cytokine production inhibiting activity, IL-6; assay type: cell-based; conditions: at a concentration of 12 μM, FIG. 6
Method: as §1

iNOS mRNA = iNOS mRNA expression level; assay type: cell-based; conditions: FIG. 5A
Method: Western blotting was conducted to identify the mechanism of the NO and PGE2 production inhibiting activity of the compound of the present invention. The inhibition of iNOS and COX-2 protein production and mRNA upregulation was tested.

[2] = tested on: LPS-induced NO production in RAW 264.7 macrophages; assay: Measurement of nitrite (Griess test) as a measure of NO production; assay type: cell-based, murine; conditions: FIG. 2
Method: The concentration of nitrite accumulated in the culture medium was measured by the Griess test as a measure of nitric oxide (NO) production. L-NIL was used as the positive control.

COc1ccc(Oc2nc(Nc3ccc(N4CCOCC4)cc3)ncc2/N=C/c2cc(OC)cc(OC)c2)cc1 [Example 21, (E)-5-((3,5-dimethoxybenzylidene)amino)-4-(4-methoxyphenoxy)-N-(4-morpholinophenyl)pyrimidin-2-amine]
inhibition of LPS-induced PEG2 production [1]: inhibit LPS-induced PEG2 production in a dose-dependent manner | inhibition of TNF-α production (TNF-α): inhibit the production of TNF-α | inhibition of IL-6 production (IL-6): inhibit the production of TNF-α and IL-6 | inhibition of LPS-induced upregulation of iNOS mRNA (iNOS mRNA): inhibit LPS-induced upregulation of iNOS mRNA | cell viability (toxicity) (RAW 264.7 macrophages): little toxicity | inhibition of LPS-induced NO production ([2]; RAW 264.7 macrophages, LPS 24 hours, Griess test): inhibit LPS-induced NO production in a dose-dependent manner | NO inhibitory activity as compared to the positive control L-NIL ([2]; relative to L-NIL): 2 times
